From patent US20240002846A1, “COMPOSITIONS AND METHODS FOR THE DIAGNOSIS AND TREATMENT OF ITCH” (Duke University, priority 2020, published 2024)
Entries after “also recorded” stand apart in the source; their conditions may differ. Where two headings read alike, the source gives them in different places.

Tests used:
pERK expression = assay: pERK Western blot in cultured human keratinocytes; format: cell-based; details: inhibitor 10 μM
Procedure: Primary human keratinocytes were cultured as previously described (Chen et al. J. Biol. Chem. 2016, 291, 10252-10262). In brief, surgically discarded foreskin samples, obtained from Duke Children's Hospital in accordance to institutionally approved IRB protocol, were incubated with Dispase (Gibco, Gaithersburg, MD, 4 U/mL) for 12-16 h at 4° C. followed by 0.05% trypsin (Gibco, Gaithersburg, MD) for 10-20 min at 37° C. Cells were maintained in keratinocyte serum-free media (Invitrogen, Waltham, MA) with 5% CO2 at 37° C. and used at passage 2-3.
Western Blot. Routine procedures were followed (Chen et al. J. Biol. Chem. 2016, 291, 10252-10262, Chen et al. Pain 2014, 155, 2662-2672). Briefly, cultured keratinocytes and dissected dorsal neck skin (0.5×0.5 cm, the area that received the treatment) were protein-extracted in radioimmunoprecipitation assay (RIPA, Sigma, St. Louis, MO) buffer and electroblotted to polyvinylidene fluoride (PVDF) membranes after gel separation of proteins in a 4-15% polyacrylamide gel (Bio-Rad, Hercules, CA). […] Immunoblot band intensity was quantitated using the software Image J and ERK served as a control for pERK expression.

[1] = test system: human TRPV4 mutations (R746C, R746G, R746D, K754G, R757G, R774G, and W776G); assay: Ca2+ imaging in HEK cells transfected with human TRPV4 mutations; format: cell-based
Procedure: Cell culture and transfection. HEK293 cells (ATCC® CRL-1573) were cultured on poly-D-lysine coated coverslips in 24-well plate containing DMEM media with high-Glucose (Gibco, Gaithersburg, MD) supplemented with 10% fetal bovine serum (FBS, HyClone Laboratories, Logan, UT) and 100 U/mL of penicillin/streptomycin (Gibco, Gaithersburg, MD). Cell cultures were maintained with 5% of CO2 in a humidified incubator at 37° C. HEK cells were transfected with rat or human wild type or mutant TRPV4 channels with EGFP or YFP coupled to their C-termini (1.5 μg of plasmid for excised patch clamp and Ca^2+ imaging and 200 ng for single-channel experiments). The jetPEI™ Polyplus transfection reagent (Polyplus Transfection, New York, NY) for electrophysiology or Lipofectamine™ 2000 Reagent (Invitrogen, Waltham, MA) for Ca^2+ imaging were used for transfections per manufacturer's instructions as previously described (Chen et al. Pain 2014, 155, 2662-2672; Morales-Lazaro et al. Nat. Commun. 2016, 7, 13092). […]
(§1) In vitro and ex vivo Ca^2+ imaging. […] Ratios of emissions were acquired at 0.5 Hz. ΔR/R0 was determined as the fraction of the increase of a given ratio over baseline ratio divided by baseline ratio. […]

[2] = test system: rat TRPV4 mutations (R746C, R746G, R746D, K754G, R757G, R774G, and W776G); assay: Ca2+ imaging in HEK cells transfected with rat TRPV4 mutations; format: cell-based
Procedure: Cell culture and transfection. HEK293 cells (ATCC® CRL-1573) were cultured on poly-D-lysine coated coverslips in 24-well plate containing DMEM media with high-Glucose (Gibco, Gaithersburg, MD) supplemented with 10% fetal bovine serum (FBS, HyClone Laboratories, Logan, UT) and 100 U/mL of penicillin/streptomycin (Gibco, Gaithersburg, MD). Cell cultures were maintained with 5% of CO2 in a humidified incubator at 37° C. HEK cells were transfected with rat or human wild type or mutant TRPV4 channels with EGFP or YFP coupled to their C-termini (1.5 μg of plasmid for excised patch clamp and Ca^2+ imaging and 200 ng for single-channel experiments). The jetPEI™ Polyplus transfection reagent (Polyplus Transfection, New York, NY) for electrophysiology or Lipofectamine™ 2000 Reagent (Invitrogen, Waltham, MA) for Ca^2+ imaging were used for transfections per manufacturer's instructions as previously described (Chen et al. Pain 2014, 155, 2662-2672; Morales-Lazaro et al. Nat. Commun. 2016, 7, 13092). To investigate whether miR-146a can directly activate TRPV1 channels or indirectly via TLRs, HEK293 cells were transfected with rTRPV1 or co-transfected rTRPV1 with rTLR7, rTLR2, or rTLR6 (Addgene, Watertown, MA) for Ca^2+ imaging assay. Control cells were transfected with GFP or YFP.
Site-directed mutagenesis of TRPV4 channels. TRPV4 sequences of multiple species were aligned using Clustal Omega program. Site-directed mutagenesis to generate point mutations in rat and human TRPV4 channels were carried out using Phusion DNA polymerase enzyme (Salazar et al. Nat. Struct. Mol. Biol. 2009, 16, 704-710; Rosenbaum et al. Neuron 2002, 33, 703-713; Hsieh et al. Methods Mol. Biol. 2013, 978, 173-186), with final sequencing to check for presence of the induced mutation. We introduced the following mutations into the rTRPV4 or hTRPV4 channel: R746C, R746G, R746D, K754G, R757G, R774G, and W776G.
as §1

hTRPV4-121AAWAA125 = target: T1, hTRPV4-121AAWAA125 (Homo sapiens, UniProt Q9HBA0, K121A/K125A/R122A/R124A); assay: Inside-out patch-clamp, hTRPV4-121AAWAA125; format: biochemical; details: 5 μM LPC 18:1
T1 construct: expressed in transfected cells; host or cells: HEK293
Procedure: Cell culture and transfection. HEK293 cells (ATCC® CRL-1573) were cultured on poly-D-lysine coated coverslips in 24-well plate containing DMEM media with high-Glucose (Gibco, Gaithersburg, MD) supplemented with 10% fetal bovine serum (FBS, HyClone Laboratories, Logan, UT) and 100 U/mL of penicillin/streptomycin (Gibco, Gaithersburg, MD). Cell cultures were maintained with 5% of CO2 in a humidified incubator at 37° C. HEK cells were transfected with rat or human wild type or mutant TRPV4 channels with EGFP or YFP coupled to their C-termini (1.5 μg of plasmid for excised patch clamp and Ca^2+ imaging and 200 ng for single-channel experiments). […]
Electrophysiology. Currents were recorded using the inside-out configuration of the patch-clamp technique (Hamill et al. Pflugers Arch. 1981, 391, 85-100). […] Mean current values in response to GSK1016790A or LPC 18:1 were measured after channel activation had reached the steady-state (˜3 min). […] Currents were low-pass filtered at 2 kHz and sampled at 10 kHz with an EPC 10 amplifier (HEKA Elektronik) and were plotted and analyzed with Igor Pro (Wavemetrics Inc.).

T1 sequence (Q9HBA0 whole entry K121A/R122A/R124A/K125A): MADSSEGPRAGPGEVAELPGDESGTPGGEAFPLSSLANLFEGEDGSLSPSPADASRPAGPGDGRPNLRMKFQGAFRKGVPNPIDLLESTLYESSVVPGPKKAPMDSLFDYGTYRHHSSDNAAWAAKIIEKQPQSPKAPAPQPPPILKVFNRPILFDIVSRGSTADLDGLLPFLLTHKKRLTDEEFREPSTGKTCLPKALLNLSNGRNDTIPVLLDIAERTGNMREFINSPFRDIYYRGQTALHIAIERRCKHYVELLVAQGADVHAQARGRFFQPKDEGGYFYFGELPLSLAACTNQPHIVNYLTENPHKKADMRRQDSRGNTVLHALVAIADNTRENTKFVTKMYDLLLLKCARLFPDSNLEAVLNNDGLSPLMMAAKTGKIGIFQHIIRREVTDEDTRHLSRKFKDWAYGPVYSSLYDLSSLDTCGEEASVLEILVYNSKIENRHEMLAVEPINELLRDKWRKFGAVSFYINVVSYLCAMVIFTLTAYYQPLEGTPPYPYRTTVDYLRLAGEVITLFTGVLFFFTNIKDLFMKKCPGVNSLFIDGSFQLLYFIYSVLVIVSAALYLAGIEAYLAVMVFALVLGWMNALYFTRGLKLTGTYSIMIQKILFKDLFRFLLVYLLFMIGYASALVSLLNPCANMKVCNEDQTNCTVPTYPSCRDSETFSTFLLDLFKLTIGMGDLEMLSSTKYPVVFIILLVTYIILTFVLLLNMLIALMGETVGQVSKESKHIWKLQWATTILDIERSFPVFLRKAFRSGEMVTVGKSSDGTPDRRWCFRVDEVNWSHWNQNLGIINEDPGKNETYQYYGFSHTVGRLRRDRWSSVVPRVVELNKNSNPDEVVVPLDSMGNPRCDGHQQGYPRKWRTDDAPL

Row | Compound | effect on LPC-increased pERK expression (pERK expression) | Ca2+ signal induced by 10 μM LPC 18:1 in TRPV4 mutants vs hTRPV4 [1] | Ca2+ signal induced by 10 μM LPC 18:1 in TRPV4 mutants vs rTRPV4 [2] | Ca2+ signal induced by 10 μM LPC 18:1 in TRPV4 mutants vs rTRPV4 ([2]; listed as LPC (18:1)) | average activation of currents, normalized to 1 μM GSK101 (hTRPV4-121AAWAA125)
1 | Cc1c(C(=O)Nc2cccc(C(F)(F)F)c2)cc(-c2ccccc2)n1CCCN1CCOCC1 [HC067047] | eliminated the increase; also recorded: abolished | – | – | – | –
2 | LPC 18:1 | – | drastically reduced | drastically reduced | significantly reduced potency | 43±4%
